# Values of other authors as cited in US20190070157A1, “HYPERBARIC SOLUTION INJECTION OF LEVOBUPIVACAINE HYDROCHLORIDE COMPRISING LEVOBUPIVACAINE HYDROCHLORIDE” (NEON LABORATORIES LIMITED, priority 2015, published 2019).
# Details: animal studies, compared with bupivacaine
structure (smiles),measurement,value
CCCCN1CCCC[C@H]1C(=O)Nc1c(C)cccc1C [Levobupivacaine],risk of cardiovascular and CNS toxicity,lower risk of cardiovascular and CNS toxicity than bupivacaine
